Experimental data as given in patent US20250127844A1, “PEPTIDE HAVING HAIR LOSS PREVENTION OR HAIR GROWTH PROMOTION ACTIVITY AND USE THEREOF” (CAREGEN CO., LTD., priority 2021, published 2025).

Tests used:
Keratin 14 = assay: RT-PCR of Keratin 14 expression in HHORSC; assay type: cell-based, human; settings: peptide 500 nM, 5 μM, 50 μM, 72 hours, vs untreated control, FIG. 6
Experimental: (§1) Specifically, HHORSC (human hair outer root sheath cell, Sciencell, USA) was seeded in a 6-well culture plate at 4×10^5 cells/well and then cultured in MSC complete medium (mesenchymal stem cell complete media) for 24 hours. Next, the medium was replaced with serum free MSC complete medium and cultured again for 24 hours. Then, the HHORSC was treated with the peptide of SEQ ID NO: 1 prepared in the Preparation Example at concentrations of 500 nM, 5 μM, and 50 μM, respectively, and cultured at 37° C. for 72 hours. As a positive control, EGF was treated at a concentration of 50 nM, and as a negative control, HHORSC without any treatment was used. After washing with PBS, RNA was isolated by treating with 300 μ ? of easy blue (intron, Korea). Then, cDNA was synthesized using a cDNA synthesis kit (enzynomics, Korea) by quantification using nano drop, and PCR was performed using primers for Ha3-II, Keratin 14, and Keratin 19 (base sequences of primer are listed in Table 3 below) and PCR premix (enzynomics, Korea). Electrophoresis was performed on a 1.5% agarose gel, and the mRNAs of Ha3-II, Keratin 14, and Keratin 19 were detected using a band analysis system (Bio-Rad gel image system).

Ha3-II = assay: RT-PCR of Ha3-II expression in HHORSC; assay type: cell-based, human; settings: peptide 500 nM, 5 μM, 50 μM, 72 hours, vs untreated control, FIG. 6
Experimental: as §1

β-catenin = assay: Western blotting of β-catenin moved to the nucleus in HHFDPC; assay type: cell-based, human; settings: HHFDPC nuclear protein, peptide 500 nM, 5 μM, 50 μM, 24 hours, vs untreated control, FIG. 3
Experimental: In addition, in addition to p-AKT and p-ERK, in order to confirm the activation of β-catenin, which is known to affect cell proliferation and differentiation, whether β-catenin moved into the nucleus was confirmed through Western blotting. Specifically, the HHFDPC as in [Experiment Example 1-1] was seeded in a 6-well culture plate at an amount of 4×10^5 cells/well, cultured in MSC complete medium (mesenchymal stem cell complete media) for 24 hours. Next, the medium was replaced with serum free MSC complete medium and cultured again for 24 hours. Then, the HHFDPC was treated with the peptide of SEQ ID NO: 1 prepared in the Preparation Example at concentrations of 500 nM, 5 μM, and 50 μM, respectively, and cultured at 37° C. for 24 hours. As a positive control, minoxidil was treated at a concentration of 1 μM, and as a negative control, HHFDPC without any treatment was used. After washing with PBS, proteins in the nucleus were isolated using a nuclear protein extraction kit (Thermo scientific, USA). After electrophoresis using a 10% SDS-PAGE gel, it was transferred to a PVDF membrane and blocked using 5% skim milk at room temperature for 30 minutes. […] After washing again with 0.1% PBS-T (0.1% Tween-20 in PBS) three times for 15 minutes each, β-catenin was detected by treatment with ECL solution (GE Healthcare, USA).

Keratin 19 = assay: RT-PCR of Keratin 19 expression in HHORSC; assay type: cell-based, human; settings: peptide 500 nM, 5 μM, 50 μM, 72 hours, vs untreated control, FIG. 6
Experimental: as §1

MSX2 = assay: RT-PCR of MSX2 expression in HHGMC; assay type: cell-based, human; settings: peptide 500 nM, 5 μM, 50 μM, 72 hours, vs untreated control, FIG. 7
Experimental: Specifically, HHGMC (human hair germinal matrix cell, Sciencell, USA) was seeded in a 6-well culture plate at 4×10^5 cells/well and then cultured in MSC complete medium (mesenchymal stem cell complete media) for 24 hours. Next, the medium was replaced with serum free MSC complete medium and cultured again for 24 hours. Then, the HHGMC was treated with the peptide of SEQ ID NO: 1 prepared in the Preparation Example at concentrations of 500 nM, 5 μM, and 50 μM, respectively, and cultured at 37° C. for 72 hours. As a positive control, EGF was treated at a concentration of 50 nM, and as a negative control, HHGMC without any treatment was used. After washing with PBS, RNA was isolated by treating with 300 μ ? of easy blue (intron, Korea). Next, cDNA was synthesized using a cDNA synthesis kit (enzynomics, Korea) by quantification using nano drop, and PCR was performed using primers for MSX2 (base sequences of primer are listed in Table 4 below) and PCR premix (enzynomics, Korea). Electrophoresis was performed on a 1.5% agarose gel, and MSX2 mRNA was detected using a band analysis system (Bio-Rad gel image system).

p-AKT = assay: Western blotting of phosphorylated AKT in HHFDPC; assay type: cell-based, human; settings: peptide 500 nM, 5 μM, 50 μM, 24 hours, vs untreated control, FIG. 2
Experimental: (§2) First, phosphorylated forms of AKT and ERK, which act as signaling molecules related to the proliferation of HHFDPC, were confirmed through Western blotting. Specifically, HHFDPC as in [Experiment Example 1-1] above was seeded at 4×10^5 cells/well in a 6-well culture plate, cultured in MSC complete medium (mesenchymal stem cell complete media) for 24 hours, and then the medium was replaced with serum free MSC complete medium and cultured for another 24 hours. Then, the HHFDPC was treated with the peptide of SEQ ID NO: 1 prepared in the Preparation Example at concentrations of 500 nM, 5 μM, and 50 μM, respectively, and cultured at 37° C. for 24 hours. As a positive control, minoxidil was treated at a concentration of 1 μM, and as a negative control, HHFDPC without any treatment was used. Then, Western blotting was performed to detect phosphorylated AKT and phosphorylated ERK. After washing with PBS, the cells were treated with 100 μ ? of lysis buffer to destroy cells, thereby obtaining cell lysate. After electrophoresis using a 10% SDS-PAGE gel, it was transferred to a PVDF membrane and blocked using 5% skim milk at room temperature for 30 minutes. […] After washing again with 0.1% PBS-T (0.1% Tween-20 in PBS) three times for 15 minutes each, p-AKT and p-ERK were detected by treatment with ECL solution (GE Healthcare, USA).

c-Myc = assay: RT-PCR of c-Myc expression in HHFDPC; assay type: cell-based, human; settings: peptide 500 nM, 5 μM, 50 μM, 24 hours, vs untreated control, FIG. 4
Experimental: (§3) Furthermore, in order to determine whether the β-catenin moves to the nucleus and is activated to affect proliferation and differentiation, whether the expression of LEF-1, c-Myc and cyclin D1 (cyclin D1), which act as downstream factors, increases with β-catenin activation was confirmed through RT-PCR. Specifically, in the same manner as the previous Western blotting experiment, HHFDPC cells were cultured, treated with the peptides of the Preparation Example of the present invention at concentrations of 500 nM, 5 μM, and 50 μM, respectively, and cultured at 37° C. for 24 hours. After washing the cells with PBS, RNA was isolated by treating them with 300 μ ? of easy blue (intron, Korea). Then, cDNA was synthesized using a cDNA synthesis kit (enzynomics, Korea) by quantifying it with nano drop, and PCR was performed using primers for LEF-1, c-Myc and cyclin D1 (base sequences of the primer are listed in Table 2 below) and PCR premix (enzynomics, Korea). Electrophoresis was performed on a 1.5% agarose gel, and then the mRNA of LEF-1, c-Myc, c-Myc and cyclin D1 was detected using a band analysis system (Bio-Rad gel image system).

DKK-1 protein = assay: Western blotting of DKK-1 protein in DHT-treated HHFDPC; assay type: cell-based, human; settings: HHFDPC with DHT 100 nM, peptide 500 nM, 5 μM, 50 μM, 24 hours, vs DHT-only negative control, FIG. 5
Experimental: DKK-1 protein (dickkopf-related protein 1) is a hair loss-related protein known to be highly expressed in individuals with hair loss, especially male pattern hair loss, and its expression is known to be promoted by hormones such as DHT (Dihydrotestosterone). Accordingly, the expression of DKK-1 protein was induced by treating HHFDPC cells with DHT together with the peptide according to the Preparation Example of the present invention, and then the expression level of DKK-1 was measured through Western blotting to determine whether there was an effect of suppressing the expression of DKK-1 protein.
Specifically, HHFDPC as in [Experiment Example 1-1] was seeded in a 6-well culture plate at 4×10^5 cells/well and then cultured in MSC complete medium (mesenchymal stem cell complete media) for 24 hours. Next, the medium was replaced with serum free MSC complete medium and cultured again for 24 hours. In addition, the HHFDPC was treated with the peptide of SEQ ID NO: 1 prepared in the Preparation Example at concentrations of 500 nM, 5 μM, and 50 μM, respectively, and at this time, DHT, an expression inducer of DKK-1 protein, was simultaneously treated at a concentration of 100 nM and then cultured at 37° C. for 24 hours. […] After washing again with 0.1% PBS-T (0.1% Tween-20 in PBS) three times for 15 minutes each, DKK-1 protein was detected by treatment with ECL solution (GE Healthcare, USA).

[1] = system: human hair follicle dermal papilla cells (HHFDPC); assay: MTT proliferation of dermal papilla cells; assay type: cell-based; settings: peptide 500 nM, 5 μM, 50 μM, 72 hours, vs untreated control, FIG. 1
Experimental: While culturing human hair follicle dermal papilla cells (HHFDPC), the absorbance was measured after treatment with the peptide of the present invention to confirm whether there was an effect of promoting the proliferation of the HHFDPC dermal papilla cells.
Specifically, HHFDPC (Sciencell, USA) was seeded at 4×10^3 cells/well in a 96-well culture plate, cultured in MSC complete medium (mesenchymal stem cell complete media, Sciencell, USA) for 24 hours, and then the medium was replaced with serum free MSC complete medium and cultured for another 24 hours. Then, the HHFDPC was treated with the peptide of SEQ ID NO: 1 prepared in the Preparation Example at concentrations of 500 nM, 5 μM, and 50 μM, respectively, and cultured at 37° C. for 72 hours. As a positive control, minoxidil was treated at a concentration of 1 μM, and as a negative control, HHFDPC without any treatment was used. Then, 10 μ ? of 5 mg/mL MTT solution was added and cultured in a 37° C. CO2 incubator for 4 hours to stain the cells. After removing the medium, the cells were treated with 100 μl of DMSO and shaken for 10 minutes, and the number of HHFDPC cells was confirmed by measuring absorbance at a wavelength of 540 nm using a spectrophotometer.

p-ERK = assay: Western blotting of phosphorylated ERK in HHFDPC; assay type: cell-based, human; settings: peptide 500 nM, 5 μM, 50 μM, 24 hours, vs untreated control, FIG. 2
Experimental: as §2

cyclin D1 = assay: RT-PCR of cyclin D1 expression in HHFDPC; assay type: cell-based, human; settings: peptide 500 nM, 5 μM, 50 μM, 24 hours, vs untreated control, FIG. 4
Experimental: as §3

LEF-1 = assay: RT-PCR of LEF-1 expression in HHFDPC; assay type: cell-based, human; settings: peptide 500 nM, 5 μM, 50 μM, 24 hours, vs untreated control, FIG. 4
Experimental: as §3

Sequence: QHNQIRYFEE [peptide of the present invention]
- Keratin 14 mRNA (Keratin 14): the amount of mRNA increased further
- Ha3-II mRNA (Ha3-II): the amount of mRNA increased further
- β-catenin moved to the nucleus (β-catenin): migration due to activation of β-catenin increased
- Keratin 19 mRNA (Keratin 19): the amount of mRNA increased further
- MSX2 mRNA (MSX2): the amount of mRNA increased further
- phosphorylated AKT (p-AKT) (p-AKT): phosphorylation was found to be increased
- c-Myc mRNA (c-Myc): the amount of mRNA increased further
- amount of DKK-1 protein (DKK-1 protein): the amount of DKK-1 protein was found to be reduced
- proliferation of HHFDPC (absorbance at 540 nm, MTT) [1]: proliferation of HHFDPC was promoted depending on the concentration of the treated peptide
- phosphorylated ERK (p-ERK) (p-ERK): phosphorylation was found to be increased
- cyclin D1 mRNA (cyclin D1): the amount of mRNA increased further
- LEF-1 mRNA (LEF-1): the amount of mRNA increased further
